# Laboratory results taken from US20040242870A1, “Antiviral methods and compounds” (priority 2000, published 2004).
# pIC50: −log10 of the molar value. Read-outs that look alike come from different tables or passages of the source.
# Columns and labels:
# HIV-1 = assay: HeLa CD4 LTR β-gal HIV-1 attachment assay; format: cell-based; conditions: for pIC50: Human immunodeficiency virus 1, HeLa; for β-galactosidase production versus background: cells alone+compounds, at all times
# Procedure: The attachment assay was performed with the HeLa CD4 LTR , β-gal cells available from the AIDS Research and Reference Reagent Repository. […] HeLa CD4 LTR β-gal cells express cell surface CD4 and contain an LTR β-galactosidase reporter construct. Upon infection either the Tat protein incorporated into the virion or new Tat produced following virus integration and transcription trans-activates the LTR β-gal reporter, leading to expression of the β-galactosidase enzyme. HeLa CD4 LTR β-gal cells are routinely cultured with the required selection antibiotics and screened for mycoplasma contamination. Twenty-four h prior to initiation of the assay cells were trypsinized, counted and 1×10^4 cells placed in a 0.2 cm well in media without selection antibiotics. […] A known titer of virus was then added to the wells and the incubation continued for 1 h. At the end of the incubation the wells were washed 6 times with media and the culture continued for 48 h. At 48 h the wells were washed one time with PBS and β-galactosidase enzyme expression determined by chemiluminescence per manufacturers instructions (Tropix Gal-screen™, Tropix, Bedford, Mass.). Compound toxicity was monitored on sister plates using MTS dye reduction.
# PBMCs [1] = assay: PBMC apoptosis by flow cytometry (APO-BRDU kit); format: cell-based, Human
# Procedure: Flow cytometry studies were carried out on PHA/IL-2 induced PBMCs treated for 6 days with the various test compounds. Prior to flow cytometry the PBMCs were washed, counted and 1×10^6 cells resuspended in PBS and stained for CD4 or CD8 surface markers using anti-CD4.PE or CD8.PE (both from PharMingen) for 30 min at 4° C. The PBMC were then washed, fixed (Cytofix) and permeabilized (Cytoperm) followed by staining for apoptosis-related DNA damage. Initial experiments used the BrdU Flow Kit from PharMigen (2354KK). […] For both kits, manufacturers instructions were followed for staining and analysis of the samples. Following the appropriate staining protocol the cells were analyzed using a Becton Dickinson (Bedford, Mass.) FACSSort
# In another series of experiments, the IG compounds and cannabidiol treated cells were assessed for the induction of apoptosis (see Tables 8 and 9). […] As IL-2 is an essential component for maintaining the health of PHA induced PBMCs, a second focus of these studies focuses on the effect of the compounds in the absence of IL-2.
# PBMCs [2] = assay: Cell cycle analysis of PBMCs by flow cytometry; format: cell-based, Human
# Procedure: Flow cytometry studies were carried out on PHA/IL-2 induced PBMCs treated for 6 days with the various test compounds. Prior to flow cytometry the PBMCs were washed, counted and 1×10^6 cells resuspended in PBS and stained for CD4 or CD8 surface markers using anti-CD4.PE or CD8.PE (both from PharMingen) for 30 min at 4° C. The PBMC were then washed, fixed (Cytofix) and permeabilized (Cytoperm) followed by staining for apoptosis-related DNA damage. Initial experiments used the BrdU Flow Kit from PharMigen (2354KK). This kit with the appropriate software should have yielded percent apoptosis along with the number of cells in each phase of the cell cycle. However, we were not successful with this kit and subsequently used the data to look at only the distribution in the cell cycle of the PBMCs following drug treatment. We were successful in detecting apoptosis in PBMCs with the PharMingen APO-BRDU™ kit (6576KK). Using this kit, we were not able to co-stain for CD4 and CD8 due to the fluorescent tags used in the APO-BRDU™ kit. For both kits, manufacturers instructions were followed for staining and analysis of the samples. Following the appropriate staining protocol the cells were analyzed using a Becton Dickinson (Bedford, Mass.) FACSSort
# Experiments were conducted using flow cytometry to assess the effect of the IMG compounds and cannabidiol on induction of apoptosis. Briefly, compound-treated PBMCs were assayed for apoptosis using a BrdU methodology. Table 6 summarizes the effects of the IMG Compounds on cell cycle and cell viability by Trypan Blue Dye exclusion. Table 7 reduces the changes in the cell cycle to a ratio based upon the percent of cells in G2-G1. G2-G1 cells represent transition cells that are in either G2 or G1, that cannot be distinguished based upon DNA content by flow cytometry. […] This ratio cannot be used as a quantitative factor to measure fold-increases or decreases between population, but rather to access trends in the cell cycle.
# [3] = Experiment 1, pretreat 4 h, read-out: IC50
# [4] = Experiment 1, pretreat 24 h, read-out: IC50
# [5] = Experiment 2, pretreat 4 h, read-out: IC50
# [6] = Experiment 2, pretreat 24 h, read-out: IC50
# [7] = IL-2 supplemented media, 50 μM, HIV +
# [8] = IL-2 supplemented media, 50 μM, HIV −
# [9] = IL-2 supplemented media, 100 μM, HIV +
# [10] = IL-2 supplemented media, 100 μM, HIV −
# [11] = IL-2 supplemented media, 15 μM, HIV +
# [12] = IL-2 supplemented media, 15 μM, HIV −
# [13] = IL-2 supplemented media, 30 μM, HIV +
# [14] = IL-2 supplemented media, 30 μM, HIV −
compound,measurement,setting,value
"COc1cc(C(C)(C)CCCC(C)C)cc(OC)c1OC [IG-07, 1-(1,1,5Trimethylhexyl)-3,4,5-trimethoxybenzene]",pIC50,"HIV-1; Experiment 1, pretreat 0 h, read-out: IC50",< 4.30
same,pIC50,HIV-1; [3],< 4.30
same,pIC50,HIV-1; [4],< 4.30
same,pIC50,"HIV-1; Experiment 2, pretreat 0 h, read-out: IC50",4.80
same,pIC50,HIV-1; [5],< 4.30
same,pIC50,HIV-1; [6],< 4.30
same,transient suppression of virus replication,"HIV-1; at lower concentrations of compounds, two independent experiments",observed consistently
same,β-galactosidase production versus background,HIV-1,suppressed β-galactosidase production below background
same,% Apoptosis,"PBMCs [1]; IL-2 deficient media, 50 μM, HIV +",32.6%
same,% Apoptosis,"PBMCs [1]; IL-2 deficient media, 50 μM, HIV −",27%
same,% Apoptosis,"PBMCs [1]; IL-2 deficient media, 100 μM, HIV +",64%
same,% Apoptosis,"PBMCs [1]; IL-2 deficient media, 100 μM, HIV −",54%
same,% Apoptosis,PBMCs [1]; [7],16%
same,Fold Change,PBMCs [1]; [7],1
same,% Apoptosis,PBMCs [1]; [8],14.4%
same,Fold Change,PBMCs [1]; [8],1.2
same,% Apoptosis,PBMCs [1]; [9],22.5%
same,Fold Change,PBMCs [1]; [9],1.4
same,% Apoptosis,PBMCs [1]; [10],22.8%
same,Fold Change,PBMCs [1]; [10],2
same,% 7-AAD positive per cell cycle phase G0-G1,"PBMCs [2]; 5 μM, HIV +",89%
same,% 7-AAD positive per cell cycle phase G2-G1,"PBMCs [2]; 5 μM, HIV +",2%
same,% 7-AAD positive per cell cycle phase G2-M,"PBMCs [2]; 5 μM, HIV +",10%
same,% of cells in cell cycle phase,"PBMCs [2]; 5 μM, HIV +",0%
same,% 7-AAD positive per cell cycle phase G0-G1,"PBMCs [2]; 5 μM, HIV −",89%
same,% 7-AAD positive per cell cycle phase G2-G1,"PBMCs [2]; 5 μM, HIV −",2%
same,% 7-AAD positive per cell cycle phase G2-M,"PBMCs [2]; 5 μM, HIV −",6.9%
same,% of cells in cell cycle phase,"PBMCs [2]; 5 μM, HIV −",0%
same,% 7-AAD positive per cell cycle phase G0-G1,"PBMCs [2]; 100 μM, HIV +",95%
same,% 7-AAD positive per cell cycle phase G2-G1,"PBMCs [2]; 100 μM, HIV +",2%
same,% 7-AAD positive per cell cycle phase G2-M,"PBMCs [2]; 100 μM, HIV +",3.1%
same,% of cells in cell cycle phase,"PBMCs [2]; 100 μM, HIV +",1.7%
same,% 7-AAD positive per cell cycle phase G0-G1,"PBMCs [2]; 100 μM, HIV −",94%
same,% 7-AAD positive per cell cycle phase G2-G1,"PBMCs [2]; 100 μM, HIV −",2%
same,% 7-AAD positive per cell cycle phase G2-M,"PBMCs [2]; 100 μM, HIV −",0.2%
same,% of cells in cell cycle phase,"PBMCs [2]; 100 μM, HIV −",6%
"C=C(C)[C@@H]1CCC(C)=C[C@H]1c1c(O)cc(CCCCC)cc1O [Cannabidiol, reference compound]",β-galactosidase production versus background,HIV-1,suppressed β-galactosidase production below background
same,% Apoptosis,PBMCs [1]; [11],20.0%
same,Fold Change,PBMCs [1]; [11],1.2
same,% Apoptosis,PBMCs [1]; [12],20.5%
same,Fold Change,PBMCs [1]; [12],1.7
same,% Apoptosis,PBMCs [1]; [13],74%
same,Fold Change,PBMCs [1]; [13],4.6
same,% Apoptosis,PBMCs [1]; [14],22%
same,Fold Change,PBMCs [1]; [14],1.8
same,% 7-AAD positive per cell cycle phase G0-G1,"PBMCs [2]; 1 μM, HIV +",94%
same,% 7-AAD positive per cell cycle phase G2-G1,"PBMCs [2]; 1 μM, HIV +",2%
same,% 7-AAD positive per cell cycle phase G2-M,"PBMCs [2]; 1 μM, HIV +",5.7%
same,% of cells in cell cycle phase,"PBMCs [2]; 1 μM, HIV +",0%
same,% 7-AAD positive per cell cycle phase G0-G1,"PBMCs [2]; 1 μM, HIV −",91%
same,% 7-AAD positive per cell cycle phase G2-G1,"PBMCs [2]; 1 μM, HIV −",2%
same,% 7-AAD positive per cell cycle phase G2-M,"PBMCs [2]; 1 μM, HIV −",9.2%
same,% of cells in cell cycle phase,"PBMCs [2]; 1 μM, HIV −",0%
same,% 7-AAD positive per cell cycle phase G0-G1,"PBMCs [2]; 25 μM, HIV +",96%
same,% 7-AAD positive per cell cycle phase G2-G1,"PBMCs [2]; 25 μM, HIV +",2%
same,% 7-AAD positive per cell cycle phase G2-M,"PBMCs [2]; 25 μM, HIV +",0%
same,% of cells in cell cycle phase,"PBMCs [2]; 25 μM, HIV +",4.2%
same,% 7-AAD positive per cell cycle phase G0-G1,"PBMCs [2]; 25 μM, HIV −",96.4%
same,% 7-AAD positive per cell cycle phase G2-G1,"PBMCs [2]; 25 μM, HIV −",2%
same,% 7-AAD positive per cell cycle phase G2-M,"PBMCs [2]; 25 μM, HIV −",0.05%
same,% of cells in cell cycle phase,"PBMCs [2]; 25 μM, HIV −",3.6%
same,% 7-AAD positive per cell cycle phase G0-G1,"PBMCs [2]; 35 μM, HIV +",98%
same,% 7-AAD positive per cell cycle phase G2-G1,"PBMCs [2]; 35 μM, HIV +",2%
same,% 7-AAD positive per cell cycle phase G2-M,"PBMCs [2]; 35 μM, HIV +",0%
same,% of cells in cell cycle phase,"PBMCs [2]; 35 μM, HIV +",2.6%
same,% 7-AAD positive per cell cycle phase G0-G1,"PBMCs [2]; 35 μM, HIV −",95.5%
same,% 7-AAD positive per cell cycle phase G2-G1,"PBMCs [2]; 35 μM, HIV −",2%
same,% 7-AAD positive per cell cycle phase G2-M,"PBMCs [2]; 35 μM, HIV −",0%
same,% of cells in cell cycle phase,"PBMCs [2]; 35 μM, HIV −",4.5%
"CC(C)=CCCC1(C)CCc2c(O)cc(C(C)(C)CCCC(C)C)cc2O1 (centres unmarked) [IG-08, 3,4-Dihydro-2-methyl-2-(4-methyl-3-pentenyl)-7-(1,1,5-trimethylhexyl)-2H-1-benzopyran-5-ol]",pIC50,"HIV-1; Experiment 1, pretreat 0 h",4.80
same,pIC50,HIV-1; [3],4.97
same,pIC50,HIV-1; [4],5.13
same,pIC50,"HIV-1; Experiment 2, pretreat 0 h",6.05
same,pIC50,HIV-1; [5],4.96
same,pIC50,HIV-1; [6],5.59
same,β-galactosidase production versus background,HIV-1,suppressed β-galactosidase production below background
same,Comment: suppression of β-galactosidase activity,HIV-1; pretreat 0 h,Suppression of μ-galactosidase
same,Comment: suppression of β-galactosidase activity,HIV-1; pretreat 4 h,Suppression of μ-galactosidase
same,Comment: suppression of β-galactosidase activity,HIV-1; pretreat 24 h,Suppression of μ-galactosidase
same,% Apoptosis,"PBMCs [1]; IL-2 deficient media, 15 μM, HIV +",29%
same,% Apoptosis,"PBMCs [1]; IL-2 deficient media, 15 μM, HIV −",18.4%
same,% Apoptosis,"PBMCs [1]; IL-2 deficient media, 30 μM, HIV +",13.8%
same,% Apoptosis,"PBMCs [1]; IL-2 deficient media, 30 μM, HIV −",11.7%
same,% Apoptosis,PBMCs [1]; [11],19.3%
same,Fold Change,PBMCs [1]; [11],1.2
same,% Apoptosis,PBMCs [1]; [12],17.3%
same,Fold Change,PBMCs [1]; [12],1.2
same,% Apoptosis,PBMCs [1]; [13],32.1%
same,Fold Change,PBMCs [1]; [13],2
same,% Apoptosis,PBMCs [1]; [14],27.5%
same,Fold Change,PBMCs [1]; [14],2.3
same,% 7-AAD positive per cell cycle phase G0-G1,"PBMCs [2]; 15 μM, HIV +",98%
same,% 7-AAD positive per cell cycle phase G2-G1,"PBMCs [2]; 15 μM, HIV +",2%
same,% 7-AAD positive per cell cycle phase G2-M,"PBMCs [2]; 15 μM, HIV +",0.08%
same,% of cells in cell cycle phase,"PBMCs [2]; 15 μM, HIV +",2.4%
same,% 7-AAD positive per cell cycle phase G0-G1,"PBMCs [2]; 15 μM, HIV −",91%
same,% 7-AAD positive per cell cycle phase G2-G1,"PBMCs [2]; 15 μM, HIV −",2%
same,% 7-AAD positive per cell cycle phase G2-M,"PBMCs [2]; 15 μM, HIV −",8.7%
same,% of cells in cell cycle phase,"PBMCs [2]; 15 μM, HIV −",0%
same,% 7-AAD positive per cell cycle phase G0-G1,"PBMCs [2]; 30 μM, HIV +",99%
same,% 7-AAD positive per cell cycle phase G2-G1,"PBMCs [2]; 30 μM, HIV +",2%
same,% 7-AAD positive per cell cycle phase G2-M,"PBMCs [2]; 30 μM, HIV +",0.15%
same,% of cells in cell cycle phase,"PBMCs [2]; 30 μM, HIV +",0.9%
same,% 7-AAD positive per cell cycle phase G0-G1,"PBMCs [2]; 30 μM, HIV −",98%
same,% 7-AAD positive per cell cycle phase G2-G1,"PBMCs [2]; 30 μM, HIV −",2%
same,% 7-AAD positive per cell cycle phase G2-M,"PBMCs [2]; 30 μM, HIV −",0.6%
same,% of cells in cell cycle phase,"PBMCs [2]; 30 μM, HIV −",1%
